Measured values reported in EP1853270B1, “PHARMACEUTICAL COMPOSITIONS COMPRISING NEP-INHIBITORS, INHIBITORS OF THE ENDOGENOUS ENDOTHELIN PRODUCING SYSTEM AND DIURETICS” (Solvay Pharmaceuticals GmbH, priority 2005, dated 2006).

System: spontaneously hypertensive rat
Experiment: Telemetric monitoring of blood pressure and heart rate in spontaneously hypertensive rats, compounds given via drinking water
Type: in vivo
Settings: male SHR; for DBP: group mean change of 24 h mean diastolic blood pressure; for DBP / HR / SBP: day 23 (3 weeks of treatment) minus baseline (day 3), via drinking water, intended 10 mg/kg/day hydrochlorothiazide and/or 100 mg/kg/day daglutril, n=5 per group; for HR: group mean change of 24 h mean heart rate; for SBP: group mean change of 24 h mean systolic blood pressure; for effect on blood pressure: result in words, 3 weeks of treatment via drinking water, difference between groups significant (ANOVA, at least P<0.01)
Source text: Male spontaneously hypertensive rats (= SHR, insulin resistant strain from Charles River; aged 6 months) were equipped with telemetry transmitters for continuous monitoring of blood pressure and heart rate (TA11PA-C40. DSI, USA). Telemetry transmitters for continuous monitoring of blood pressure, heart rate and locomotor activity (TA11PA-C40, Data Sciences, USA) were implanted intraabdominally under inhalative halothane anesthesia. A midline abdominal incision was made, and the abdominal aorta was visualized by removal of retroperitoneal fat and connective tissue. A ligature was placed caudal of the renal arteries, the aorta was punctured with a 22G needle, and the catheter was advanced into the aorta. The entry point was sealed with tissue adhesive (Vetbond, 3M, USA), the ligature was removed, and the abdominal incision was closed. Measurements of aortic pressure were taken every 5 minutes (= min) for 4 seconds (= s) each at a sampling rate of 500 Hz, and were corrected for the corresponding ambient pressure (ambient pressure monitor, C11 PR, Data Sciences, USA).
After 3 days of monitoring under baseline (untreated) conditions, animals received daglutril via the drinking water. The intended daily dose was 100 mg/kg/day of daglutril.
In a second experiment, rats were divided into two treatment groups receiving hydrochlorothiazide or hydrochlorothiazide + daglutril. Compounds were administered via the drinking water, and daily drug intake was measured by weighing the water bottles thrice weekly. Intended daily doses were 10 mg/kg/day of hydrochlorothiazide plus, in the combination group, 100 mg/kg/day of daglutril.
Concentrations of hydrochlorothiazide and daglutril in the drinking water were adjusted once per week, in order to ensure the intended daily intake of 10 and 100 mg/kg, respectively.
The blood pressure, heart rate and activity values, sampled in 5 min intervals by the Dataquest™ system, were used for calculation of individual 24 hours (= h) -means. These 24 h means were exported to Excel, and group mean values of systolic blood pressure (= SBP), diastolic blood pressure (= DBP), heart rate (= HR), and locomotor activity (= ACT) were calculated for the daglutril, hydrochlorothiazide and the hydrochlorothiazide + daglutril groups. For the statistical analysis, a baseline value (pre) was calculated from the last day prior to compound application (day 3), and effects of daglutril, hydrochlorothiazide and hydrochlorothiazide + daglutril were calculated in relation to this baseline value (day 23, i.e. after 3 weeks of treatment, minus baseline value). The statistical comparison was done by using univariate ANOVA at an error level of P<0.05.

Compound | DBP [mmHg] | HR [min⁻¹] | SBP [mmHg] | effect on blood pressure
CCOC(=O)[C@H](CCc1ccccc1)CC1(C(=O)N[C@H]2CCc3ccccc3N(CC(=O)O)C2=O)CCCC1 [daglutril] | 2.0 | -6.0 | -0.3 | no effect on blood pressure
NS(=O)(=O)c1cc2c(cc1Cl)NCNS2(=O)=O [HCTZ, hydrochlorothiazide] | -7.7 | -4.5 | -11.3 | moderate decrease in blood pressure
